Measurements taken from patent publication US20220257722A1, “COMPOSITIONS AND METHODS OF TREATING AND PREVENTING SYSTEMIC COMPLICATIONS OF ACUTE ILLNESS” (United States Government As Represented By The Department …, priority 2019, published 2022).

System: rat small intestine
Assay: In vivo small intestinal perfusion: FITC-LPS transport into portal vein and mesenteric lymph during OA/TCA exposure
Details: for TDG-related augmentation of FITC-LPS transport into the lymph: L-NAME 0.1 mM perfused or PG97-269 0.3 mg/kg iv before TDG; for inhibitory effect of TDG on FITC-LPS transport into the PV: L-NAME 0.1 mM perfused or PG97-269 0.3 mg/kg iv before TDG 50 μg/kg iv; for AUC0-90 of lymph FITC-LPS compared with the +TDG group / TDG-induced reduction of AUC0-90 PV FITC-LPS / lymph output in TDG-treated rats: L-NAME or PG97-269 before TDG; for AUC0-90 of PV FITC-LPS / AUC0-90 of lymph FITC-LPS: OA/TCA-augmented, 0-90 min; for OA/TCA-induced FITC-LPS transport into the PV: intraduodenal FITC-LPS 50 μg/ml + OA 30 mM/TCA 10 mM, anesthetized rats; for FITC-LPS transport into the lymph: intraduodenal FITC-LPS + OA/TCA
Method: In vivo small intestinal perfusion. Intraduodenal perfusions combined with PV and mesenteric lymph cannulation were carried out (1, 48). Under isoflurane anesthesia (2%), the animal was placed supine on a recirculating heating block system (Summit Medical Systems, Bend, Oreg., USA) in order to maintain body temperature at 36-37° C. Prewarmed saline was infused via the right femoral vein at 1.08 ml/h using a Harvard infusion pump (Harvard Apparatus, Holliston, Mass., USA). The abdomen was incised, and the PV was cannulated with a polyethylene (PE)-50 tube attached with 23G needle and fixed by methylacrylate adhesive at the insertion site. The tube was filled with heparinized saline enabling repeated blood sampling. PV samples (0.2 ml each) were collected every 15 min, followed by 0.2 ml flushes with heparinized saline. […] The lymph solution was continuously collected into a 1.5-ml tube every 15 min. A polyethylene tube (diameter 5 mm) filled with PBS was inserted through the forestomach and tied at 0.5 cm caudal from the pyloric ring. After bolus perfusion of 2 ml PBS into the duodenum from the tube, followed by stabilization for ˜30 min, the time was set as t=0 min. FITC-LPS (50 μg/ml) in 2-ml PBS with or without OA (30 mM) and TCA (10 mM) was bolus perfused at t=0 min. In order to maintain lymph flow, 2-ml PBS was perfused every 30 min. PV and lymph samples were collected every 15 min for 90 min. Blood samples were collected in a 0.5-ml tube containing 1 μl each of EDTA (0.5 M), and immediately centrifuged at 5,000 × g for 5 min, after which the plasma was stored at −80° C. until use. The lymph solution was weighed to measure its volume and centrifuged, with the supernatant stored at −80° C. until use. At 90 min, after collection of PV and lymph samples, arterial blood was taken from abdominal aorta for a reference sample, followed by euthanasia by thoracotomy.
The appearance of FITC-LPS into the PV plasma and lymph was assessed by fluorescence measurement using Synergy-2. Fluorescence intensity in the t=0 sample as background was subtracted from the fluorescence values measured in other time point samples. For lymph samples, the FITC-LPS concentration was multiplied by the lymph output in order to calculate total FITC-LPS appearance. FITC-LPS appearance was expressed as PV FITC-LPS content (ng/ml) or FITC-LPS transport into lymph (ng/15 min). Furthermore, total FITC-LPS transport into the PV and lymph was assessed by calculating the area under the curve (AUC) during 0-90 min of FITC-LPS appearance (AUC0-90) using the trapezoidal rule and expressed as AUC0-90 of PV FITC-LPS (μg·min/ml) and AUC0-90 of lymph FITC-LPS (μg).
Intestinal perfusion study: drug treatment. The lipid raft inhibitor MβCD (1 mM), the CD36 inhibitor SSO (1 mM), and PL81 (3%) were added to the initial perfusion of 2-ml PBS at t=−30 min, followed by their addition to the luminal FITC-LPS/OA/TCA solution at t=0 min.
Effect of TDG on intestinal LPS transport. The stable, DPP4-resistant analog of GLP-2, TDG (13) was used to examine the acute effect of GLP-2 on LPS transport into PV and mesenteric lymph in vivo. TDG (50 μg/kg) was bolus injected iv 15 min before the luminal FITC-LPS/OA/TCA perfusion (at t=−15 min). L-NAME was added to the first perfusion of 2 ml PBS (at t=−30 min). PG97-269 (0.3 mg/kg) was bolus injected iv 20 min before the luminal FITC-LPS/OA/TCA perfusion (at t=−20 min).

Compound | TDG-related augmentation of FITC-LPS transport into the lymph | inhibitory effect of TDG on FITC-LPS transport into the PV | AUC0-90 of lymph FITC-LPS compared with the +TDG group | TDG-induced reduction of AUC0-90 PV FITC-LPS | lymph output in TDG-treated rats | AUC0-90 of PV FITC-LPS | AUC0-90 of lymph FITC-LPS | OA/TCA-induced FITC-LPS transport into the PV | FITC-LPS transport into the lymph | lymphatic output (t=0-30 min, TDG 50 μg/kg iv at t=-15 min vs non-pretreated controls)
[Ac-His^1, D-Phe^2, Lys^15, Arg^16, Leu^27]-VIP(1-7)-GRF(8-27) (HFDAVFTNSYRKVLKRLSARKLLQDIL; HELM PEPTIDE1{[ac].H.[dF].D.A.V.F.T.N.S.Y.R.K.V.L.K.R.L.S.A.R.K.L.L.Q.D.I.L.[am]}$$$$V2.0; SMILES CC[C@H](C)[C@H](NC(=O)[C@H](CC(=O)O)NC(=O)[C@H](CCC(N)=O)NC(=O)[C@H](CC(C)C)NC(=O)[C@H](CC(C)C)NC(=O)[C@H](CCCCN)NC(=O)[C@H](CCCNC(=N)N)NC(=O)[C@H](C)NC(=O)[C@H](CO)NC(=O)[C@H](CC(C)C)NC(=O)[C@H](CCCNC(=N)N)NC(=O)[C@H](CCCCN)NC(=O)[C@H](CC(C)C)NC(=O)[C@@H](NC(=O)[C@H](CCCCN)NC(=O)[C@H](CCCNC(=N)N)NC(=O)[C@H](Cc1ccc(O)cc1)NC(=O)[C@H](CO)NC(=O)[C@H](CC(N)=O)NC(=O)[C@@H](NC(=O)[C@H](Cc1ccccc1)NC(=O)[C@@H](NC(=O)[C@H](C)NC(=O)[C@H](CC(=O)O)NC(=O)[C@@H](Cc1ccccc1)NC(=O)[C@H](Cc1c[nH]cn1)NC(C)=O)C(C)C)[C@@H](C)O)C(C)C)C(=O)N[C@@H](CC(C)C)C(N)=O) [PG97-269] | inhibited | no effect | reduced | no effect | reduced |  |  |  |  | 
CC[C@H](C)[C@H](NC(=O)[C@H](Cc1ccccc1)NC(=O)[C@H](CC(=O)O)NC(=O)[C@H](CCCNC(=N)N)NC(=O)[C@H](C)NC(=O)[C@H](C)NC(=O)[C@H](CC(C)C)NC(=O)[C@H](CC(N)=O)NC(=O)[C@H](CC(=O)O)NC(=O)[C@H](CC(C)C)NC(=O)[C@@H](NC(=O)[C@@H](NC(=O)[C@H](CC(N)=O)NC(=O)[C@H](CCSC)NC(=O)[C@H](CCC(=O)O)NC(=O)[C@H](CC(=O)O)NC(=O)[C@H](CO)NC(=O)[C@H](Cc1ccccc1)NC(=O)[C@H](CO)NC(=O)CNC(=O)[C@H](CC(=O)O)NC(=O)CNC(=O)[C@@H](N)Cc1c[nH]cn1)[C@@H](C)O)[C@@H](C)CC)C(=O)N[C@@H](CC(N)=O)C(=O)N[C@@H](Cc1c[nH]c2ccccc12)C(=O)N[C@@H](CC(C)C)C(=O)N[C@H](C(=O)N[C@@H](CCC(N)=O)C(=O)N[C@H](C(=O)N[C@@H](CCCCN)C(=O)N[C@H](C(=O)N[C@H](C(=O)N[C@@H](CC(=O)O)C(=O)O)[C@@H](C)O)[C@@H](C)CC)[C@@H](C)O)[C@@H](C)CC [TDG] |  |  |  |  |  | reduced | no significant effect | abolished | rapidly increased | rapid increase
COC(=O)[C@@H](N)CCCNC(=N)N[N+](=O)[O-] [L-NAME, Nω-nitro-L-arginine methyl ester] | inhibited | reduced | reduced | reversed | reduced |  |  |  |  | 
methyl-β-cyclodextrin [MβCD] |  |  |  |  |  | abolished | no effect | abolished | no effect | 
CCCCCCCC/C=C\CCCCCCCC(=O)ON1C(=O)CC(S(=O)(=O)O)C1=O (centres unmarked) [SSO, sulfosuccinimidyl oleate] |  |  |  |  |  | failed to affect | no effect | inhibited | no effect | 
